Measurements published in ChEMBL document CHEMBL3885861, “Open TG-GATES”.

Species on record: Rattus norvegicus
Experiment: Open TG-GATES - Regimen: Daily Repeat
Format: toxicity, organism-based, Sprague-Dawley
Design: regimen Daily Repeat, gender Male, age 6 weeks
Settings: in vivo, po, route gavage; for APTT / Bas / Eos / Fbg / Hb / Ht / Lym / MCH / MCHC / MCV / Mono / Neu / PT / Plat / RBC / Ret / WBC: tissue Blood; for LIVER: tissue Liver; for A/G / ALP / ALT / AST / BUN / CRE / Ca / Cl / DBIL / GLC / IP / K / LDH / Na / PL / RALB / TBIL / TC / TG / TP / gamma-GTP: tissue Plasma
[1] = 0 mg/kg, 72 h, dose level Control, time 3 day
[2] = 0 mg/kg, […], dose level Control, time 7 day
[3] = 0 mg/kg, […], dose level Control, time 14 day
[4] = 0 mg/kg, […], dose level Control, time 28 day
[5] = 6 mg/kg, 72 h, dose level Low, time 3 day
[6] = 6 mg/kg, […], dose level Low, time 7 day
[7] = 6 mg/kg, […], dose level Low, time 14 day
[8] = 6 mg/kg, […], dose level Low, time 28 day

Q: Which results are given for `O=[N+]([O-])c1ccc(O)c([N+](=O)[O-])c1` [2,4-DINITROPHENOL]?
A: TERMINAL_BW [1]: 246.4 g; APTT [1]: 16.7 s; Bas [1]: 0%; Eos [1]: 1.2%; Fbg [1]: 265 mg/dL; Hb [1]: 12.8 g/dL; Ht [1]: 38.3%; Lym [1]: 74.4%; MCH [1]: 21.4 pg; MCHC [1]: 33.5%; MCV [1]: 64 fL; Mono [1]: 4.8%; Neu [1]: 19.8%; PT [1]: 11.6 s; Plat [1]: 131.4 x10_4/uL; RBC [1]: 599.4 x10_4/ul; Ret [1]: 6%; WBC [1]: 119.4 x10_2/uL; LIVER [1]: 11.9 g; A/G [1]: 2.3; ALP [1]: 1481 IU/L; ALT [1]: 33.8 IU/L; AST [1]: 62.6 IU/L; BUN [1]: 15.6 mg/dL; CRE [1]: 0.4 mg/dL; Ca [1]: 11.6 mg/dL; Cl [1]: 103.2 meq/L; DBIL [1]: 0.01 mg/dL; GLC [1]: 183 mg/dL; IP [1]: 7.4 mg/dL; K [1]: 4.7 meq/L; LDH [1]: 91.6 IU/L; Na [1]: 138.2 meq/L; PL [1]: 156.2 mg/dL; RALB [1]: 3.9 g/dL; TBIL [1]: 0.034 mg/dL; TC [1]: 84.2 mg/dL; TG [1]: 137 mg/dL; TP [1]: 5.6 g/dL; gamma-GTP [1]: 0.8 IU/L; TERMINAL_BW [2]: 271.5 g; TERMINAL_BW [3]: 341.5 g; TERMINAL_BW [4]: 452.7 g; APTT [2]: 16 s; Bas [2]: 0%; Eos [2]: 1%; Fbg [2]: 247 mg/dL; Hb [2]: 13.5 g/dL; Ht [2]: 39.8%; Lym [2]: 77.2%; MCH [2]: 21.5 pg; MCHC [2]: 33.9%; MCV [2]: 63.4 fL; Mono [2]: 5%; Neu [2]: 16.8%; PT [2]: 11.6 s; Plat [2]: 133.8 x10_4/uL; RBC [2]: 629 x10_4/ul; Ret [2]: 5%; WBC [2]: 101.8 x10_2/uL; APTT [3]: 16.5 s; Bas [3]: 0%; Eos [3]: 1%; Fbg [3]: 243.2 mg/dL; Hb [3]: 13.8 g/dL; Ht [3]: 40.7%; Lym [3]: 73%; MCH [3]: 20.9 pg; MCHC [3]: 33.9%; MCV [3]: 61.7 fL; Mono [3]: 5%; Neu [3]: 21%; PT [3]: 11.6 s; Plat [3]: 130 x10_4/uL; RBC [3]: 660.8 x10_4/ul; Ret [3]: 3.9%; WBC [3]: 124.2 x10_2/uL; APTT [4]: 15.9 s; Bas [4]: 0%; Eos [4]: 1%; Fbg [4]: 278.4 mg/dL; Hb [4]: 14.8 g/dL; Ht [4]: 43.5%; Lym [4]: 78.4%; MCH [4]: 19.6 pg; MCHC [4]: 34%; MCV [4]: 57.7 fL; Mono [4]: 5.6%; Neu [4]: 15.4%; PT [4]: 11.6 s; Plat [4]: 117.2 x10_4/uL; RBC [4]: 754.6 x10_4/ul; Ret [4]: 2.8%; WBC [4]: 107.4 x10_2/uL; LIVER [2]: 13.1 g; LIVER [3]: 16.5 g; LIVER [4]: 19.9 g; A/G [2]: 2.2; ALP [2]: 1556.6 IU/L; ALT [2]: 38.6 IU/L; AST [2]: 68.8 IU/L; BUN [2]: 18.2 mg/dL; CRE [2]: 0.4 mg/dL; Ca [2]: 11.4 mg/dL; Cl [2]: 105.8 meq/L; DBIL [2]: 0.014 mg/dL; GLC [2]: 182.2 mg/dL; IP [2]: 7.7 mg/dL; K [2]: 4.7 meq/L; LDH [2]: 107 IU/L; Na [2]: 141.2 meq/L; PL [2]: 154.8 mg/dL; RALB [2]: 3.8 g/dL; TBIL [2]: 0.028 mg/dL; TC [2]: 80 mg/dL; TG [2]: 162.4 mg/dL; TP [2]: 5.5 g/dL; gamma-GTP [2]: 0.8 IU/L; A/G [3]: 2; ALP [3]: 1126.4 IU/L; ALT [3]: 33.4 IU/L; AST [3]: 59.6 IU/L; BUN [3]: 18.4 mg/dL; CRE [3]: 0.3 mg/dL; Ca [3]: 11.4 mg/dL; Cl [3]: 104.2 meq/L; DBIL [3]: 0.012 mg/dL; GLC [3]: 186 mg/dL; IP [3]: 7.4 mg/dL; K [3]: 4.6 meq/L; LDH [3]: 101.6 IU/L; Na [3]: 136.8 meq/L; PL [3]: 151.4 mg/dL; RALB [3]: 4 g/dL; TBIL [3]: 0.024 mg/dL; TC [3]: 72.8 mg/dL; TG [3]: 182 mg/dL; TP [3]: 6 g/dL; gamma-GTP [3]: 0 IU/L; A/G [4]: 1.8; ALP [4]: 930.8 IU/L; ALT [4]: 30.8 IU/L; AST [4]: 58.6 IU/L; BUN [4]: 20.2 mg/dL; CRE [4]: 0.5 mg/dL; Ca [4]: 11.2 mg/dL; Cl [4]: 103.4 meq/L; DBIL [4]: 0.016 mg/dL; GLC [4]: 195.4 mg/dL; IP [4]: 7.2 mg/dL; K [4]: 4.4 meq/L; LDH [4]: 108.8 IU/L; Na [4]: 140.6 meq/L; PL [4]: 161.6 mg/dL; RALB [4]: 4 g/dL; TBIL [4]: 0.036 mg/dL; TC [4]: 79.8 mg/dL; TG [4]: 228.8 mg/dL; TP [4]: 6.2 g/dL; gamma-GTP [4]: 0.4 IU/L; TERMINAL_BW [5]: 247 g; APTT [5]: 16.5 s; Bas [5]: 0%; Eos [5]: 1%; Fbg [5]: 280.8 mg/dL; Hb [5]: 13.5 g/dL; Ht [5]: 39.7%; Lym [5]: 70%; MCH [5]: 21.5 pg; MCHC [5]: 34%; MCV [5]: 63.2 fL; Mono [5]: 9.4%; Neu [5]: 19.4%; PT [5]: 11.4 s; Plat [5]: 143.8 x10_4/uL; RBC [5]: 628 x10_4/ul; Ret [5]: 6.1%; WBC [5]: 100 x10_2/uL; LIVER [5]: 12.5 g; A/G [5]: 2.3; ALP [5]: 1318.2 IU/L; ALT [5]: 36 IU/L; AST [5]: 61.6 IU/L; BUN [5]: 18.8 mg/dL; CRE [5]: 0.4 mg/dL; Ca [5]: 11.6 mg/dL; Cl [5]: 104.4 meq/L; DBIL [5]: 0.012 mg/dL; GLC [5]: 190 mg/dL; IP [5]: 7.9 mg/dL; K [5]: 4.9 meq/L; LDH [5]: 110.2 IU/L; Na [5]: 137.6 meq/L; PL [5]: 165.2 mg/dL; RALB [5]: 4 g/dL; TBIL [5]: 0.032 mg/dL; TC [5]: 89.2 mg/dL; TG [5]: 137.2 mg/dL; TP [5]: 5.7 g/dL; gamma-GTP [5]: 0.6 IU/L; TERMINAL_BW [6]: 282.7 g; TERMINAL_BW [7]: 318.6 g; TERMINAL_BW [8]: 445.6 g; APTT [6]: 16.4 s; Bas [6]: 0%; Eos [6]: 0.8%; Fbg [6]: 264.6 mg/dL; Hb [6]: 13.1 g/dL; Ht [6]: 38.6%; Lym [6]: 81.6%; MCH [6]: 21.3 pg; MCHC [6]: 33.9%; MCV [6]: 62.6 fL; Mono [6]: 4.2%; Neu [6]: 13.6%; PT [6]: 11.5 s; Plat [6]: 137.2 x10_4/uL; RBC [6]: 617.8 x10_4/ul; Ret [6]: 5.3%; WBC [6]: 117 x10_2/uL; APTT [7]: 17.1 s; Bas [7]: 0%; Eos [7]: 1%; Fbg [7]: 255.8 mg/dL; Hb [7]: 14.1 g/dL; Ht [7]: 41.5%; Lym [7]: 76.4%; MCH [7]: 20.9 pg; MCHC [7]: 33.9%; MCV [7]: 61.7 fL; Mono [7]: 6.4%; Neu [7]: 16.4%; PT [7]: 11.8 s; Plat [7]: 119.2 x10_4/uL; RBC [7]: 671.8 x10_4/ul; Ret [7]: 3.9%; WBC [7]: 134.2 x10_2/uL; APTT [8]: 16.5 s; Bas [8]: 0%; Eos [8]: 1.2%; Fbg [8]: 282.4 mg/dL; Hb [8]: 14.9 g/dL; Ht [8]: 43.9%; Lym [8]: 76.6%; MCH [8]: 19.6 pg; MCHC [8]: 33.9%; MCV [8]: 57.8 fL; Mono [8]: 5.6%; Neu [8]: 16.8%; PT [8]: 11.8 s; Plat [8]: 121.2 x10_4/uL; RBC [8]: 759.4 x10_4/ul; Ret [8]: 2.2%; WBC [8]: 117.4 x10_2/uL; LIVER [6]: 13.1 g; LIVER [7]: 13.9 g; LIVER [8]: 20 g; A/G [6]: 2.3; ALP [6]: 1599.8 IU/L; ALT [6]: 36.8 IU/L; AST [6]: 66 IU/L; BUN [6]: 17.6 mg/dL; CRE [6]: 0.3 mg/dL; Ca [6]: 11.4 mg/dL; Cl [6]: 104.8 meq/L; DBIL [6]: 0.012 mg/dL; GLC [6]: 188.2 mg/dL; IP [6]: 7.4 mg/dL; K [6]: 4.5 meq/L; LDH [6]: 115.4 IU/L; Na [6]: 140.8 meq/L; PL [6]: 138.6 mg/dL; RALB [6]: 3.9 g/dL; TBIL [6]: 0.03 mg/dL; TC [6]: 74.2 mg/dL; TG [6]: 121.8 mg/dL; TP [6]: 5.6 g/dL; gamma-GTP [6]: 1 IU/L; A/G [7]: 2.1; ALP [7]: 1262 IU/L; ALT [7]: 34.8 IU/L; AST [7]: 66.2 IU/L; BUN [7]: 18.8 mg/dL; CRE [7]: 0.4 mg/dL; Ca [7]: 11.1 mg/dL; Cl [7]: 106.2 meq/L; DBIL [7]: 0.01 mg/dL; GLC [7]: 184.6 mg/dL; IP [7]: 6.8 mg/dL; K [7]: 4.7 meq/L; LDH [7]: 114.6 IU/L; Na [7]: 136.8 meq/L; PL [7]: 129.4 mg/dL; RALB [7]: 3.8 g/dL; TBIL [7]: 0.016 mg/dL; TC [7]: 62.4 mg/dL; TG [7]: 125.8 mg/dL; TP [7]: 5.7 g/dL; gamma-GTP [7]: 0 IU/L; A/G [8]: 1.9; ALP [8]: 1091.6 IU/L; ALT [8]: 33 IU/L; AST [8]: 63.6 IU/L; BUN [8]: 20.2 mg/dL; CRE [8]: 0.5 mg/dL; Ca [8]: 11 mg/dL; Cl [8]: 105.2 meq/L; DBIL [8]: 0.01 mg/dL; GLC [8]: 203 mg/dL; IP [8]: 7.3 mg/dL; K [8]: 4.3 meq/L; LDH [8]: 144.4 IU/L; Na [8]: 140.6 meq/L; PL [8]: 150 mg/dL; RALB [8]: 3.9 g/dL; TBIL [8]: 0.03 mg/dL; TC [8]: 72.6 mg/dL; TG [8]: 199.8 mg/dL; TP [8]: 6 g/dL; gamma-GTP [8]: 0.8 IU/L
